Read-outs that look alike come from different tables or passages of the source.
How the values were obtained:
[1] = test system: CWR-22Rv1 prostate cancers; experiment: Vascular volume, albumin-Evans Blue accumulation (EPR effect) and growth in CWR-22Rv1 bearing mice treated with tasquinimod; assay type: in vivo, mouse
Protocol: To evaluate the potential importance of an EPR effect for enhancing tumor specific tasquinimod uptake and thus anti-cancer potency, albumin retention in plasma and normal tissue vs. prostate cancer was determined. To do this, nude mice bearing CWR-22Rv1 prostate cancers were injected intravenously (IV) with Evans Blue (EB) at a dose (10mg/kg) so that all of the dye is initially bound to albumin within the blood. Twenty-four hours later, the amount of albumin-EB complex retained in plasma vs. accumulated in liver, kidney, or CWR-22Rv1 prostate cancers determined. The results are expressed as concentration of extractable albumin-EB in plasma vs. the specified tissue. These studies document that prostate cancers accumulate a concentration of albumin-EB that is equal to that in the plasma by 24 hours, Figure 3C. When normalized to vascular volume, the albumin-EB accumulation by prostate cancers is more than two fold greater (p<0.05) compared to liver and more than 8 fold greater (p<0.05) compared to kidney, Figure 3C. […] Such continuous treatment with tasquinimod decreased the vascular volume within the cancers by nearly half (p<0.05), Figure 3C. […]
Tissue vascular volumes for liver, kidney, and CWR-22Rv1 cancers were determined previously via intravenous infusion of^51 Chromium (Perkin Elmer, Shelton, CT) labeled red blood cells and the result expressed as percent vascular volume as described previously.
EPR effect was determined using Evans Blue as described previously with the modification that 24 hours after the albumin in the blood of tumor bearing nude mice was labeled via IV injection of Evans Blue (EB) at a dose of 10mg/kg, the animals were anesthetized, blood collected, and then animals were perfused with saline to remove blood from the host tissues before harvesting liver, kidney, and prostate cancer xenograft tissue. The results are expressed as the concentration of EB-labeled albumin retained in the blood or specified tissue.

[2] = Plasma pharmacokinetics after oral gavage in nude mice bearing CWR-22Rv1 xenografts; assay type: in vivo, mouse; conditions: for half-life: po, 5 mg/kg
Protocol: To determine the PK of tasquinimod, nude mice with growing (i.e., 200-400 mm^3) CWR-22Rv1 human prostate cancer xenografts were given ^14C-radiolabeled drug at a dose of 5 mg/kg via oral gavage and the plasma and tissue (i.e., liver, kidney, and tumor) drug concentration determined. Maximum tasquinimod plasma concentration is reached within 1 hour after oral gavage of mice, Figure 1C. After this absorption phase, the plasma concentration declines bi-exponentially as the sum of two first-order processes involving tissue distribution, with the plasma concentration remaining above 1 μM for at least 24 hours, Figure 1D. These PK results support a two-compartment model composed of a central and peripheral compartment. In the absorption phase, the apparent volume of distribution is low (i.e., 0.31 L/kg) but is still more than 3 times the total volume of the blood (i.e., 0.1 L/kg) and is equal to the extracellular body fluid (i.e. 0.2 L/kg) plus the total volume of blood in a mouse (i.e., […]).
Male nude mice bearing 200-300mm^3 CWR-22Rv1 cancers were given ^14C-labeled tasquinimod at a dose of 5 mg/kg via oral gavage. At times ranging from 30 min to 24 hour, groups of 4-6 mice were anaesthetized with ketamine and 1 ml of heparinized blood collected by cardiac puncture, followed by subsequent cardiac perfusion of saline to remove blood associated drug. An aliquot of liver, kidney, and cancer was removed, weighed and then homogenized. The radioactivity in 10 μL aliquots of tissue homogenates and blood plasma was determined using a liquid scintillation counter and used to calculate the total amount of tasquinimod plus its metabolites per gram of tissue or per ml of blood. The remaining sample volume was deproteinated with acetonitrile and the radioactivity of an aliquot of the supernatant determined and the remaining supernatant lyophilized, resuspended initially with 0.1mL dimethyl sulfoxide and diluted by the addition of 0.9mL deionized water prior to injection into the HPLC. The HPLC system consisted of Waters pumps using a Waters gradient controller to deliver mobile phase at a flow rate of 1mL per minute using a Supelcosil ABZ+ C18 column that is 150mm long by 4.6mm diameter and has 5μm particle size. The metabolites were separated using a linear gradient in which the starting mobile phase was 35% acetonitrile: 65% water: 0.1% Trifluoroacetic acid (TFA) increasing to 50% acetonitrile: 50% water: 0.1%TFA over 25 minutes, and then increased rapidly to 98% acetonitrile: 2% water: 0.1%TFA and held until 33 minutes before it is returned to the initial conditions for the next run. Fractions were collected and the radioactivity determined by scintillation counting. As controls, the individual elution time of non-radiolabeled standard solutions of the various tasquinimod metabolites was determined using UV absorption at 215nm. The results were expressed as concentration based upon tissue volume, assuming 1gram wet weight equals 1ml, or normalized to tissue vascular volume.

[3] = Protein binding fraction (PBF) in nude mouse plasma; assay type: in vitro ADME
Protocol: (§1) Mice were orally gavaged with ^14C-labeled tasquinimod at a dose of 5mg/kg and 1 hour later blood collected and plasma isolated and the PBF determined as described previously using Centrifree® YM-30 centrifuge filter unit with a molecular weight cutoff of 30K (i.e., Millipore, Billerica,MO).

[4] = Protein binding fraction (PBF) in bovine fetal serum; assay type: in vitro ADME; conditions: bovine fetal serum (FBS), 1-50 μM radiolabeled tasquinimod
Protocol: An explanation for this highly restricted cellular uptake in the blood is provided by the fact that protein binding fraction (PBF) for tasquinimod in nude mouse plasma is 98 ± 1%. This is not a nude mouse specific effect since incubation of 1-50 μM radiolabeled tasquinimod with human plasma or bovine fetal serum (FBS) results in a PBF of ~ 98%.
as §1

With COc1cccc2c1c(O)c(C(=O)N(C)c1ccc(C(F)(F)F)cc1)c(=O)n2C [Tasquinimod] the “Percent Vascular Volume (Prostate Cancer)” value ([1]; 10mg/kg/day for 30 days) was 1.4±0.4, the “decrease of vascular volume within the cancers” value ([1]; 10 mg/kg/day for a month) was “nearly half” and the “inhibition in cancer growth” value ([1]; CWR-22Rv1, 10 mg/kg/day for a month) was “greater than 80%”. The “Cmax for protein free-tasquinimod” value ([2]; 5 mg/kg oral) was ~ 0.24 μM, the “time plasma concentration remains above 1 μM” value ([2]; 5 mg/kg oral gavage, nude mice) was “at least 24 hours” and the “increase in plasma elimination half-life on ketoconazole co-treatment” value ([2]; 5 mg/kg oral tasquinimod with ketoconazole 25mg/kg/day oral) was “more than 8 fold”. For the same compound, the “apparent volume of distribution” value ([2]; absorption phase, 5 mg/kg oral) was 0.31 L/kg, the “fraction of blood drug located in the plasma and not in blood cells” value ([2]; fractionated whole blood, 4hours post oral dosing) was greater than 98% and the Tmax ([2]; male, mouse, plasma, 5 mg/kg oral gavage, nude mice, read-out: time to maximum plasma concentration) was no more than 1 h. For the same compound, the half-life ([2]; male, nude, mouse, plasma, 5 mg/kg oral, read-out: half-life of α-distribution phase (converted)) was 3.2 h, the half-life ([2]; male, nude, mouse, plasma, 5 mg/kg oral, read-out: β-elimination phase half-life) was greater than 10 h and the Cmax ([2]; male, nude, mouse, plasma, 5 mg/kg oral, read-out: total plasma Cmax) was roughly 12 µM. For the same compound, the “plasma tasquinimod that is albumin bound” value [3] was 98%, the “total plasma tasquinimod that is non-protein bound” value ([3]; following oral dosing) was ~ 2% and the fraction unbound at 1 h ([3]; oral, 5 mg/kg, nude mouse plasma) was 0.02. It also gave a fraction unbound [4] of roughly 0.02.
